In this assay the test system is childhood ALL patients with adverse cytogenetics harboring t(9; 22). The assay can be described thus: Kaplan-Meier survival of childhood ALL patients by cytogenetic risk group. To be noted: five of the six cases with adverse cytogenetics. The class given is in vivo, human.

Description: One hundred and seventy-three patients diagnosed with ALL and younger than 18 years were recruited from Sant Joan de Déu Hospital, Barcelona, Spain and from Cruces Hospital, Barakaldo, Spain between 1996 and 2012. Patients were all from Caucasian descent. […] Samples were extracted when patients were at complete remission or without cytogenetic aberrations affecting chromosomes where the polymorphisms are located. Clinical data were collected at diagnosis, including sex, age, leukemia type (T-cell, B-cell or mixed), WBC count, cytogenetic risk group and treatment protocol (Table 1). The different cytogenetic risk groups were classified according to the criteria from the Spanish Society of Pediatric Hematology and Oncology as follow: Presence of t(9; 22), t(4; 11) or MLL rearrangements at 11q23, or hipodiploidy (<44 chromosomes) was considered adverse group. Presence of 412; 21) or hiperdiploidy (>50 chromosomes) was considered favorable and all other cases were considered to belong to intermediate cytogenetic risk group. […] Every genotype was analyzed separately and moreover, in case of CNVs, null genotypes were tested vs. non-null genotypes, and in case of SNPs, heterozygotes were grouped together with either homozygote genotype.

Regarding `Cc1ccc(NC(=O)c2ccc(CN3CCN(C)CC3)cc2)cc1Nc1nccc(-c2cccnc2)n1` [imatinib], the treatment outcome is listed as “successful”.

The record behind these values is US20210139993A1, “METHOD FOR PREDICTING SURVIVAL IN CHILDREN WITH ACUTE LYMPHOBLASTIC LEUKEMIA” (UNIVERSITAT AUTONOMA DE BARCELONA, priority 2017, published 2021).
